Laboratory results from ChEMBL document CHEMBL1157539, “Thousands of chemical starting points for antimalarial lead identification” (Nature, 2010).

tested on: Plasmodium falciparum; assay: GSK_TCMDC: Inhibition of Plasmodium falciparum 3D7 in whole erythrocytes, using parasite LDH activity as an index of growth.; assay type: functional, organism-based; details: Plasmodium falciparum, 3D7

Compound | XC50
O=C(N[C@H](CC1CCCCC1)C(=O)NC1CCCc2ccccc21)c1ccc(O)c(-c2cccc([N+](=O)[O-])c2)c1 (stereo partly drawn) | 610 nM
OC(CNCc1ccccc1OCc1ccccc1)c1cc(Br)cs1 (stereo not drawn) | 722 nM
CCN(CC)CCN(Cc1ccc(-c2ccc(C(F)(F)F)cc2)nc1)C(=O)Cn1c(SCc2ccc(F)cc2)nc(=O)c2sccc21 | 840 nM
Cn1cc(C2CCN(CCCCCNC(=O)/C=C/c3ccc(Cl)c(Cl)c3)CC2)c2cc(O)ccc21 | 943 nM
CC=CCON1C(=N)NC(=N)NC1(C)C | 27.9 nM
O=C(NCCc1cccc(Cl)c1Cl)c1ccc(N2CCN(c3ccncc3)CC2)nc1 | 1060 nM
CC(C)(C)OC(=O)NCCc1cccc(-c2c[nH]c3ncc(-c4cccc(NS(C)(=O)=O)c4)cc23)c1 | 684 nM
COc1cccc(NC(=O)Nc2c(-c3cccc(C(F)(F)F)c3)c(C(F)(F)F)nn2C)c1 | 911 nM
CO/C(=C\C=C\c1cc2cc(Cl)c(Cl)cc2[nH]1)C(=O)NCCCN1CCN(C2CCCCC2)CC1 | 1010 nM
CC(C)N1CCC(Oc2ccc(CN3CCN(C(c4ccccc4)c4ccc(Cl)cc4)CC3)cc2)CC1 (stereo not drawn) | 937 nM
CC(C)N(CCOc1ccc2c(c1)N(C(=O)Nc1ccc(Cl)c(Cl)c1)CC2)C(C)C | 367 nM
OC(CNCc1ccccc1OCc1ccccc1)c1cccc(Br)c1 (stereo not drawn) | 643 nM
Oc1ccc(CCNc2nc(NCCOc3cccc4ccccc34)nc(N3CCNCC3)n2)cc1 | 901 nM
O=C(Nc1cccc(CN2CCCN(Cc3ccsc3)CC2)c1)c1ccc(-c2ccccc2)cc1 | 1340 nM
CC(C)(C)c1ccc(C(=O)Nc2cccc(Nc3c(C(=O)NCc4cccc(C(F)(F)F)c4)cnc4c(O)cccc34)c2)cc1 | 1090 nM
COc1cc(N)c(Cl)cc1C(=O)NC1CCC(NCC2CCCCC2)CC1 (stereo not drawn) | 426 nM
CCOc1ccc(NC(=O)c2ccc(CN3CCCN(Cc4cccc(O)c4)CC3)cc2)cc1 | 1310 nM
O=C(Nc1cc(F)cc(-c2cccnc2)c1)c1ccc2c(=O)n(Cc3ccccc3)cnc2c1 | 1330 nM
Cn1cc(Br)c(-c2cccc(Nc3ccnc4cc(-c5nccs5)ccc34)c2)n1 | 979 nM
CCOC(=O)c1c[nH]c2c(ccc3ccccc32)c1=O | 157 nM
CNCc1cccc(-c2ccc3ccnc(N)c3c2)c1 | 93.1 nM
O=C(Nc1ccc(Cl)cc1)Nc1ccc(-c2ccc(-c3nc4ccccc4[nH]3)cc2)cc1 | 50.7 nM
COc1cc(C(=O)Nc2cccc(-c3cn4cccc(C)c4n3)c2)cc(OC)c1OC | 697 nM
O=c1cc(NCCCNCc2cc3c(Cl)cc(Cl)cc3[nH]2)[nH]c2ccccc12 | 862 nM
CCCCOP(=O)(OCCCC)C(=Cc1ccc(O)c2ccccc12)P(=O)(OCCCC)OCCCC | 1070 nM

Compound | XC50
COc1cc2ccccc2cc1CNCCCCCCNCc1cc2ccccc2cc1OC | 720 nM
Cc1ccc(C2(C)CN(CCCOc3cccc(-c4ccc(C(=O)NC(C)C)cc4)c3)CCO2)cc1 (stereo not drawn) | 960 nM
CCOc1ccc(-c2nonc2NC(=O)c2ccccc2OC)cc1OCC | 241 nM
CC(C)Cc1csc(NC(=O)C=Cc2ccco2)c1C(=O)O | 305 nM
COc1ccc2c(c1)Sc1ccccc1C(N1CCN(CCO)CC1)C2 (stereo not drawn) | 1390 nM
CCCN(c1ccc(O)c(CN2CCCCC2)c1)c1ccc([N+](=O)[O-])cn1 | 805 nM
Cc1cccc2nc(-c3cccc(-c4cccc(CN5CCCC5CN)c4)c3)[nH]c12 (stereo not drawn) | 767 nM
COc1ccc(C#Cc2ccc(-c3c(C)[nH]c(C)c(Cl)c3=O)cc2)cc1 | 66.5 nM
O=C(Nc1cccc(C(F)(F)F)c1)c1cc([N+](=O)[O-])cc2cn[nH]c12 | 995 nM
O=[N+]([O-])c1cc(C(c2ccc(O)c([N+](=O)[O-])c2)C(Cl)(Cl)Cl)ccc1O | 734 nM
O=C(Nc1ccc(-c2cccc(-c3nc4ccccc4[nH]3)c2)cc1)Nc1ccc(F)c(F)c1F | 182 nM
N#Cc1ccc(N2CCN(Cc3cccc(-c4ccc(-c5nc6ccccc6[nH]5)cc4)c3)CC2)nc1 | 1240 nM
CC(C)n1ncc2c3c(N)nc(N)nc3ccc21 | 333 nM
Nc1cccc(CNCc2cccc(-c3csc(-c4nc5ccccc5[nH]4)c3)c2)c1 | 685 nM
Cc1cccc(CNc2nc(C)cc(N[C@@H](Cc3ccccc3)C(=O)NCCOc3ccccc3)n2)c1 | 914 nM
COc1ccc(-c2cccc(NC(=O)c3cccc(C#N)c3)c2)cc1CNC(C)C | 694 nM
COc1ccccc1CCCN1C(=O)C(c2ccccc2)(c2ccccc2)N=C1N | 265 nM
CS(=O)(=O)CCNCc1cccc(-c2cc3c(Nc4ccc5c(cnn5Cc5ccccc5)c4)ncnc3s2)c1 | 553 nM
CN1CCN(c2cc3c(cc2Cl)CCN3C(=O)Cc2ccc(Cl)c(NC(=O)Nc3cccc([N+](=O)[O-])c3)c2)CC1 | 718 nM
O=C(Nc1cccc(CN2CCN(Cc3ccc(O)cc3)CC2)c1)c1cc2ccccc2s1 | 682 nM
COc1ccc(F)cc1-c1ccccc1CNC(=O)c1cnn(-c2ccc([N+](=O)[O-])cc2)c1C(F)(F)F | 596 nM
C=CCn1c(=N)c(C(=O)NC2CCCCC2)cc2c(=O)n3cccc(C)c3nc21 | 1040 nM
COc1ccc(Nc2nc(NCc3cccnc3)cc(-c3ccc(OC)cc3)n2)cc1 | 1400 nM
O=C(CC1SC(N2N=C(c3cccs3)CC2c2ccccc2)=NC1=O)Nc1ccc(Cl)cc1 (stereo not drawn) | 1680 nM
Fc1ccc(-c2nc(NCc3cccc(C(F)(F)F)c3)nn2-c2cccc(C(F)(F)F)c2)cc1C(F)(F)F | 1050 nM

Compound | XC50
Nc1c(Cl)cc(C(O)CNCCCCCCOCCc2ccc(O)cc2)cc1Cl (stereo not drawn) | 725 nM
Cc1cc(NC(=O)c2cccs2)ccc1OC1CCN(Cc2ccccc2)CC1 | 874 nM
OCC1CCN(Cc2ccc(-c3cccc(-c4nc5cc(F)ccc5[nH]4)c3)cc2)CC1 | 910 nM
N#Cc1cccc(NC(=O)Nc2cccc(OC3CCN(Cc4ccccc4)CC3)c2)c1 | 841 nM
CC(C)CN(c1nc(C(=O)NNC(=O)[C@H](CC2CC2)NC(=O)c2cc3cc(OCCN4CCCCC4)ccc3o2)cs1)C1CC1 | 213 nM
Cc1cc2nc(-c3ccc(SCC(=O)Nc4ccc5c(c4)OCCO5)nc3)[nH]c2cc1C | 989 nM
CCCN(C(=O)c1ccccc1C)c1nnc(-c2ccccc2C)s1 | 1110 nM
c1ccc(CNCc2ccc(-c3cccc(-c4nc5ccccc5[nH]4)c3)cc2)cc1 | 422 nM
NC1CCN(CCc2ccc(NS(=O)(=O)c3ccc(-c4ccccc4)cc3)cc2)CC1 | 1020 nM
Clc1cc(Nc2ncnc3cc(C#C[C@H]4CCCN4)sc23)cc2nc(Cc3ccccc3)[nH]c12 | 852 nM
COc1ccc(Nc2nccc(N3CCC(NC(=O)Nc4cc(C)ccc4C)C3)n2)cc1 (stereo not drawn) | 901 nM
CCCCOc1cc(CNCCCCCCNCc2cc(OCCCC)cc3ccccc23)c2ccccc2c1 | 736 nM
CN1CCN(CCCCCCNc2c3ccccc3nc3ccccc23)CC1 | 722 nM
N#Cc1ccc(-c2ccc(C(=O)NC3CCN(CCN4CCC(c5cn(CCOC6CCCCO6)c6ccccc56)CC4)CC3)cc2)cc1 (stereo not drawn) | 599 nM
CC(C)CNCc1ccc(-c2cccc(CN(CCN(C)C)C(=O)NCCc3ccccc3)c2)cc1 | 1060 nM
O=C(Nc1ccc(N2CCN(Cc3c[nH]c4cc(F)ccc34)CC2)cc1)c1ccccc1-c1ccc(C(F)(F)F)cc1 | 985 nM
OCCN1CCN(Cc2cccc(-c3ccc(-c4nc5cc(C(F)(F)F)ccc5[nH]4)s3)c2)CC1 | 86.7 nM
O=C(N[C@@H](CC1CCCCC1)C(=O)NC1CC1)c1ccc(O)c(-c2cccc(C(F)(F)F)c2)c1 | 773 nM
Cn1c(N=C2NC3(c4ccccn4)NC(=Nc4nc5ccccc5n4C)NC3(c3ccccn3)N2)nc2ccccc21 (stereo not drawn) | 1040 nM
CCCCN1CCN(CCCCNc2c3ccccc3nc3ccccc23)CC1 | 167 nM
COc1ccc(CNC(=O)NC2CCN(c3ccnc(Nc4ccc(F)cc4)n3)CC2)cc1 | 1050 nM
COc1cccc(Cn2ccc3c4c(N)nc(N)nc4ccc32)c1 | 3.2 nM
CN(C)c1ccc(C=C2SC(=N)N(c3nccs3)C2=O)cc1 | 461 nM
Cc1cc(-c2ncc[nH]2)ccc1-c1ccc(C(=O)N2CCc3cc4c(cc32)C2(CCN(C)CC2)CO4)cc1 | 800 nM
CN(C)CCCN(C)c1cccc2c1nc(-c1cccnc1)n2CCNCc1ccccc1 | 1390 nM

Compound | XC50
Oc1ccc(CCCNc2nc(NCc3ccccc3-c3ccccc3)nc(NC3CCNCC3)n2)cc1 | 864 nM
COc1ccc2c(=NN=Cc3cccc(C)n3)cc(-c3ccccc3)[nH]c2c1 | 751 nM
COC(=O)c1ccc(CC(C)NCC(O)c2cccc(C(F)(F)F)c2)c(Cl)c1 (stereo not drawn) | 854 nM
Nc1nc(N)c2c(Oc3cc(Cl)c(Cl)c(Cl)c3)cccc2n1 | 804 nM
CN(C)CCCN1C(=O)c2[nH]nc(-c3ccc(Cl)cc3O)c2C1c1ccc(Cl)cc1 (stereo not drawn) | 758 nM
NC(=O)NC(=O)C=Cc1ccco1 | 150 nM
Cc1n[nH]c2cc(Nc3ccnc(Nc4cccc(CN5CCOCC5)c4)n3)ccc12 | 1580 nM
CCCc1cc(N2CCC(N(CC)CC)C2)nc(Nc2ccc(OC)cc2)n1 (stereo not drawn) | 168 nM
CCOc1ccc(-c2nonc2NC(=O)c2ccc(OC(C)C)cc2)cc1OCC | 601 nM
O=C(C=Cc1ccc(Cl)c(Cl)c1)NCCCCCN1CCC(CCNS(=O)(=O)c2ccc(Br)cc2)CC1 | 1120 nM
COc1cc2nc(SCCCC#N)n(C3CCCCCC3)c(=N)c2cc1OC | 1140 nM
COc1ccc2nccc(NC(=O)C3(O)CCC(NCc4ccc5c(c4)NCCS5)CC3)c2n1 (stereo not drawn) | 598 nM
CC(C)CN(Cc1c(O)ccc2[nH]c(-c3ccc(F)cc3F)nc12)CC(C)C | 802 nM
CN(C)C1CCN(CC#Cc2cc3ncnc(Nc4ccc(OCc5cccc(F)c5)c(Cl)c4)c3s2)CC1 | 887 nM
Cc1cc(-c2c[nH]c3ncc(-c4cccc5ncccc45)cc23)ccc1C(=O)O | 761 nM
O=C(Nc1ccc(CN2CCC(c3c[nH]c4ccc(O)cc34)CC2)cc1)c1ccc(-c2ccccc2)cc1 | 253 nM
O=C(/C=C/c1ccc(Cl)c(Cl)c1)NC1CCC(CN2CCC(c3nc4cccnc4[nH]3)CC2)CC1 (stereo not drawn) | 1230 nM
CCN(CC)CCN1C(=O)C(O)(c2ccccc2Cl)c2c1cc(C#N)cc2C(F)(F)F (stereo not drawn) | 947 nM
O=C(/C=C/c1ccc(Cl)c(Cl)c1)NCCCCCN1CCC(NC(=O)Nc2cc(Cl)nc(Cl)c2)CC1 | 976 nM
Cc1cc(C)c2nc(N3CCC(C(=O)NCCCN4CCC(N5CCCCC5)CC4)CC3)sc2c1 | 838 nM
Fc1cccc(Nc2nc(NCCc3ccc(Cl)cc3)nc(Nc3cccc(F)c3)n2)c1 | 1070 nM
COc1coc(C(=O)NC2CCN(CC3(c4ccc(Cl)cc4)CCC3)CC2)c1OC | 164 nM
CC(NC(=O)c1cc(-c2ccccc2)nc2c1cnn2C(C)C)C1CC1 (stereo not drawn) | 1280 nM
